Holding throughout (type): in vivo
What all share (details): 312 h, rate 250 g/ha, evaluated after 13 days, 100=total damage to plant, 0=no damage to plant

Test [1] has as its system Alopecurus myosuroides (ALOMY). Description: Pre-emergence herbicidal activity, glasshouse pot test. Here is the method:
(§1) Seeds of a variety of test species were sown in standard soil in pots. After cultivation for one day (pre-emergence) or after 8 days cultivation (post-emergence) under controlled conditions in a glasshouse (at 24/16° C., day/night; 14 hours light; 65% humidity), the plants were sprayed with an aqueous spray solution derived from the formulation of the technical active ingredient in acetone/water (50:50) solution containing 0.5% Tween 20 (polyoxyethelyene sorbitan monolaurate, CAS RN 9005-64-5). The test plants were then grown in a glasshouse under controlled conditions in a glasshouse (at 24/16° C., day/night; 14 hours light; 65% humidity) and watered twice daily. After 13 days for pre and post-emergence, the test was evaluated (100=total damage to plant; 0=no damage to plant). Test Plants: Lolium perenne (LOLPE), Alopecurus myosuroides (ALOMY), Echinochloa crus-galli (ECHCG), and Avena fatua (AVEFA). Pre-Emergence Activity

The subject of test [2] is Avena fatua (AVEFA). Described as above. Here is the method:
as §1

Test [3] has as its system Echinochloa crus-galli (ECHCG). The test is described as above. On the procedure: as §1
For test [4], the system named is Lolium perenne (LOLPE). The test is described as above. Here is the method:
as §1

For test [5], the system named is Alopecurus myosuroides (ALOMY). Description: Post-emergence herbicidal activity, glasshouse pot test. On the procedure:
as §1, with “Post-Emergence” for “Pre-Emergence”

The test system of test [6] is Avena fatua (AVEFA). The description is as above. On the procedure: as §1, with “Post-Emergence” for “Pre-Emergence”
Test [7] has as its system Echinochloa crus-galli (ECHCG). The test is described as above. On the procedure: as §1, with “Post-Emergence” for “Pre-Emergence”
The test system of test [8] is Lolium perenne (LOLPE). The test is described as above. On the procedure:
as §1, with “Post-Emergence” for “Pre-Emergence”

With `CCc1ccc(Oc2nc3ccccc3s2)cc1C1=C(O)C2C(C1=O)[C@H]1CC[C@@H]2CC1` (some centres unmarked) [Compound A-16], the pest or weed control at 250 g/ha in test [1] worked out at 40%; in test [2] it was 30%; in test [3] it was 90%; in test [4], 70%; in test [5] it was 70%; in test [6], 90%. Moreover, the pest or weed control at 250 g/ha turned out to be 100% in test [7] and 70% in test [8].
Regarding `CCc1ccc(Oc2ccc(Cl)c(Cl)c2)cc1C1=C(O)CCC1=O` [Compound A-17, 2-[5-(3,4-dichlorophenoxy)-2-ethylphenyl]cyclopentane-1,3-dione], the pest or weed control at 250 g/ha in test [1] turned out to be 10%; in test [2] it was 20%; in test [3] it was 30%; in test [4] it was 10%; in test [5], 10%; in test [6], 10%. The pest or weed control at 250 g/ha stood at 70% in test [7] and 30% in test [8].
With `CCc1ccc(Oc2cnc3cc(Cl)ccc3n2)cc1C1=C(O)CCC1=O` [Compound A-18], the pest or weed control at 250 g/ha worked out at 50% in test [1]; 50% in test [2]; 80% in test [3]; 70% in test [4]; 90% in test [5]; 90% in test [6]. Besides, the figures for the pest or weed control at 250 g/ha in test [7] and in test [8] were 100% and 70%, respectively.
Regarding `CCc1ccc(Oc2ncc(Cl)cc2F)cc1C1=C(O)CCC1=O` [Compound A-19], the pest or weed control at 250 g/ha in test [1] was 90%; in test [2], 80%; in test [3], 90%; in test [4] it was 90%; in test [5], 80%; in test [6], 60%. The pest or weed control at 250 g/ha in test [7] came to 100%; in test [8], 50%.
Regarding `CCc1ccc(Oc2ccc(Br)cc2Cl)cc1C1=C(O)[C@H]2[C@H]3CC[C@H](C3)[C@H]2C1=O` [Compound A-20], the pest or weed control at 250 g/ha came to 50% in test [1]; 10% in test [2]; 60% in test [3]; 50% in test [4]; 30% in test [5]; 0% in test [6]. Also, the pest or weed control at 250 g/ha is 70% in test [7] and 20% in test [8].
With `CCc1ccc(Oc2ccc(Cl)cc2Cl)cc1C1=C(O)[C@H]2[C@H]3CC[C@H](C3)[C@H]2C1=O` [Compound A-21], the pest or weed control at 250 g/ha in test [1] turned out to be 20%; in test [2] it was 0%; in test [3], 40%; in test [4], 30%; in test [5], 40%; in test [6], 0%. Further, the pest or weed control at 250 g/ha was 70% in test [7] and 20% in test [8].
On to `CCc1ccc(Oc2ccc(Br)cc2)cc1C1=C(O)[C@H]2[C@H]3CC[C@H](C3)[C@H]2C1=O` [Compound A-22], for which the pest or weed control at 250 g/ha in test [1] stood at 40%; in test [2], 30%; in test [3], 90%; in test [4], 80%; in test [5], 50%; in test [6], 80%. For the same compound, the pest or weed control at 250 g/ha came to 100% in test [7] and 40% in test [8].
